Data published in ChEMBL document CHEMBL3124892, “Polyphenols bearing cinnamaldehyde scaffold showing cell growth inhibitory effects on the cisplatin-resistant A2780/Cis ovarian cancer cells” (Bioorg Med Chem, 2014).
Activity calls are given as the source filed them. The calls are words filed in the database; no cut-off is given here.

Tests used:
A2780cisR [1] = test: Induction of apoptosis in cisplatin-resistant human A2780cis cells assessed as shrunken and fragmented nuclei with condensed chromatin at 20 uM after 24 hrs by TO-PRO-3 iodide staining based immunofluorescent microscopy; assay type: functional, cell-based
A2780cisR [2] = test: Induction of apoptosis in cisplatin-resistant human A2780cis cells assessed as PARP cleavage at 20 uM after 24 hrs by western blot analysis; assay type: functional, cell-based
A2780cisR [3] = test: Induction of apoptosis in cisplatin-resistant human A2780cis cells assessed as increase in cleaved active caspase-7 level at 20 uM after 24 hrs by immunofluorescent microscopy; assay type: functional, cell-based
A2780cisR [4] = test: Induction of apoptosis in cisplatin-resistant human A2780cis cells assessed as stimulation of caspase 7 cleavage at 20 uM after 24 hrs by western blot analysis; assay type: functional, cell-based
[5] = Cell cycle arrest in cisplatin-resistant human A2780cis cells assessed as accumulation at G2/M phase at 20 uM after 24 hrs by propidium iodide staining based flow cytometry (reference value: 29.47%); assay type: functional; conditions: A2780cisR
[6] = Cell cycle arrest in cisplatin-resistant human A2780cis cells assessed as accumulation at S phase at 20 uM after 24 hrs by propidium iodide staining based flow cytometry (reference value: 17.24%); assay type: functional; conditions: A2780cisR
[7] = Cell cycle arrest in cisplatin-resistant human A2780cis cells assessed as accumulation at G1 phase at 20 uM after 24 hrs by propidium iodide staining based flow cytometry (reference value: 45.33%); assay type: functional; conditions: A2780cisR
[8] = Cell cycle arrest in cisplatin-resistant human A2780cis cells assessed as accumulation at sub-G1 phase at 20 uM after 24 hrs by propidium iodide staining based flow cytometry (reference value: 7.76%); assay type: functional; conditions: A2780cisR
A2780cisR [9] = test: Antiproliferative activity against cisplatin-resistant human A2780cis cells after 24 to 48 hrs by cell counting kit-8 analysis; assay type: functional, cell-based
A2780cisR [10] = test: Antiproliferative activity against cisplatin-resistant human A2780cis cells at 1 to 20 uM by cell counting kit-8 analysis; assay type: functional, cell-based; conditions: TDE = time-dependent effect
[11] = Growth inhibition of cisplatin-resistant human A2780cis cells after 7 days by crystal violet staining based clonogenic assay; assay type: functional; conditions: A2780cisR, 168 h
Aurora kinase A = target: T1, Aurora kinase A (Homo sapiens, UniProt O14965); test: Inhibition of human aurora A kinase using LRRASLG as substrate by scintillation counting in presence of [gamma-33P]ATP
T1 sequence (O14965 whole entry): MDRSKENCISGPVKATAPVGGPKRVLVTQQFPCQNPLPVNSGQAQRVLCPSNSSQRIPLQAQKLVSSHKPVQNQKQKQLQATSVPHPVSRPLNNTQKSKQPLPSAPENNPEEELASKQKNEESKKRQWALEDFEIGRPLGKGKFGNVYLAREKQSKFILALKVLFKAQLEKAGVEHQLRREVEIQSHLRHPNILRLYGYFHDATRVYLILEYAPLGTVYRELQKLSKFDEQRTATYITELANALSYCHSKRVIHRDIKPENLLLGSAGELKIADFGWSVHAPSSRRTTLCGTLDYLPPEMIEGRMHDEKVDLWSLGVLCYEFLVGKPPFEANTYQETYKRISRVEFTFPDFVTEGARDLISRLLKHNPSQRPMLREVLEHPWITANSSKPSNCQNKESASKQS

Row | Structure (SMILES) | GI50 ([11]; read-out: GI50) [µM] | GI50 ([11]; read-out: pGI50 (converted)) [µM] | also measured
1 | COc1cc(OC)c(/C=C/C(=O)c2cc(OC)ccc2O)c(OC)c1 | 3.95 | 3.99 | Activity (A2780cisR [1]): Active; Activity (A2780cisR [2]): Active; Activity (A2780cisR [3]): Active; Activity (A2780cisR [4]): Active; Activity [5]: 68.3%; Activity [6]: 4.09%; Activity [7]: 3.53%; Activity [8]: 16.5%; Activity (A2780cisR [9]): Dose-dependent effect; Activity (A2780cisR [10]): tde
2 | COc1cc(/C=C/C(=O)c2cc(OC)ccc2O)cc(OC)c1 | 11.3 | 11.2 | 
3 | COc1ccc2c(c1)C=C(C=O)CO2 | > 20 | 20 | 
4 | COc1cc(OC)c(/C=C/C(=O)c2c(O)cccc2OC)c(OC)c1 | 3.87 | 3.9 | IC50 (Aurora kinase A): 66.4 µM; Activity (A2780cisR [2]): Active; Activity (A2780cisR [4]): Active; Activity [5]: 71%; Activity [6]: 4.33%; Activity [7]: 3.36%; Activity [8]: 17.1%; Activity (A2780cisR [9]): Dose-dependent effect; Activity (A2780cisR [10]): tde
5 | COc1cccc(/C=C/C(=O)c2ccccc2O)c1OC | 14.4 | 14.5 | 
6 | COc1ccc(/C=C/C(=O)c2ccccc2O)c(OC)c1OC | 14.3 | 14.5 | 
7 | COc1ccc(O)c(C(=O)/C=C/c2cccc(OC)c2OC)c1 | 17 | 17 | 
8 | COc1ccc(O)c(C(=O)/C=C/c2cc(OC)c(OC)cc2OC)c1 | > 20 | 20 | 
9 | O=C(/C=C/c1ccccc1)c1ccccc1O [2'-HYDROXYCHALCONE] | 13.5 | 13.5 | 
10 | COc1cc(OC)c(OC)cc1/C=C/C(=O)c1c(O)cccc1OC | 19.2 | 19.1 | 
11 | COc1ccc(/C=C/C(=O)c2c(O)cccc2OC)c(OC)c1 | 9.55 | 9.57 | 
12 | COc1ccc2c(c1)OCC(C(C)=O)=C2 | > 20 | 20 | 
13 | COc1cccc(/C=C/C(=O)c2c(O)cccc2OC)c1 | 9.64 | 9.57 | 
14 | COc1cccc(/C=C/C(=O)c2c(O)cccc2OC)c1OC | 9.67 | 9.8 | 
15 | COc1ccccc1/C=C/C(=O)c1c(O)cccc1OC | 9.55 | 9.57 | 
16 | COc1ccc2c(c1)C=C(C(C)=O)CO2 | > 20 | 20 | 
17 | COc1ccc(/C=C/C(=O)c2ccccc2O)cc1 | 15.9 | 15.9 | 
18 | COc1cccc(/C=C/C(=O)c2cc(OC)ccc2O)c1 | 10.1 | 10.3 | 
19 | COc1ccc(/C=C/C(=O)c2cc(OC)ccc2O)c(OC)c1 | 19.8 | 20 | 
20 | COc1cc(/C=C/C(=O)c2c(O)cccc2OC)cc(OC)c1 | 11.4 | 11.5 | 
21 | COc1ccc(/C=C/C(=O)c2c(O)cccc2OC)cc1 | 15.4 | 15.5 | 
22 | COc1ccc(/C=C/C(=O)c2c(O)cccc2OC)c(OC)c1OC | 18.4 | 18.2 | 
23 | COc1cc(/C=C/C(=O)c2ccccc2O)cc(OC)c1 | 13.7 | 13.8 | 
24 | COc1ccc2c(c1)OCC(C=O)=C2 | > 20 | 20 | 
25 | COc1ccc(/C=C/C(=O)c2ccccc2O)c(OC)c1 | 15 | 14.8 | 
26 | COc1ccccc1/C=C/C(=O)c1ccccc1O | 11.7 | 11.8 | 
